Results published in patent US7662896B2, “Fluorochemical sulfonamide surfactants” (3M Innovative Properties Company, priority 1999, dated 2010).

Key:
[1] = test system: SPF-bred Sprague Dawley rats; assay: 28-day oral toxicity study by daily gavage in the rat; format: in vivo; details: 28 days daily oral gavage; 3 (C8), 10 (C6), 30 (C4) mg/kg body weight/day
Experimental: (§1) A 28-day oral toxicity study with perfluorooctanesulfonate (C8F17SO3^−) was conducted by daily gavage in the rat followed by 14 and 28 day recovery periods. The dose levels for the study were selected to be 0 mg/kg body weight/day for species control, and 3 mg/kg body weight/day for potassium perfluorooctanesulfonate. The potassium perfluorooctanesulfonate was formulated in 1% aqueous carboxymethyl cellulose and administered daily for 28 days by oral gavage to SPF-bred Sprague Dawley rats. A vehicle control group and a treated group were tested, each consisting of 8 male and 8 female rats. An extra 3 rats per sex per group were allowed 14 days of recovery, and another 3 rats per sex per group were allowed 28 days of recovery.

[2] = Amount of perfluoroalkylsulfonate in male rat liver tissue (HPLC/ESMS/MS); format: in vivo; details: for Amount (ppm) of Sulfonate Day 1N* / Amount (ppm) of Sulfonate Day 1 / Amount (ppm) of Sulfonate Day 14N* / Amount (ppm) of Sulfonate Day 14 / Amount (ppm) of Sulfonate Day 28N* / Amount (ppm) of Sulfonate Day 28: male rat liver; for Amount (ppm) of Sulfonate Day 1N*: normalized to a feeding level of 3 mg/kg body weight per day; for Amount (ppm) of Sulfonate Day 1: day 1 after 28 day dosing at 3 (C8), 10 (C6), 30 (C4) mg/kg/day; for Amount (ppm) of Sulfonate Day 14N* / Amount (ppm) of Sulfonate Day 28N*: normalized to 3 mg/kg body weight per day; for Amount (ppm) of Sulfonate Day 14: day 14 of recovery; for Amount (ppm) of Sulfonate Day 28: day 28 of recovery
Experimental: as §1
Extracted liver tissue samples from the sacrificed rats of the study were homogenized and extracted using an ion-pairing extraction procedure. The extracts were quantitatively analyzed using high-pressure liquid chromatography/electrospray tandem mass spectroscopy (HPLC/ESMS/MS) and evaluated.

[3] = Surface tension in water (Test Procedure I, Kruss K12 Tensiometer); format: physicochemical; details: for Surface Tension (dynes/cm) at Various Surfactant Concentrations: 10 ppm: 10 ppm in water; for Surface Tension (dynes/cm) at Various Surfactant Concentrations: 100 ppm: 100 ppm in water; for Surface Tension (dynes/cm) at Various Surfactant Concentrations: 1000 ppm: 1000 ppm in water; for Surface Tension (dynes/cm) at Various Surfactant Concentrations: 23 ppm: 23 ppm in water; for Surface Tension (dynes/cm) at Various Surfactant Concentrations: 83 ppm: 83 ppm in water; for Surface Tension (dynes/cm) at Various Surfactant Concentrations: 164 ppm: 164 ppm in water; for Surface Tension (dynes/cm) at Various Surfactant Concentrations: 273 ppm: 273 ppm in water; for Surface Tension (dynes/cm) at Various Surfactant Concentrations: 421 ppm: 421 ppm in water; for Surface Tension (dynes/cm) at Various Surfactant Concentrations: 617 ppm: 617 ppm in water; for Surface Tension (dynes/cm) at Various Surfactant Concentrations: 875 ppm: 875 ppm in water; for Surface Tension (dynes/cm) at Various Surfactant Concentrations: 1032 ppm: 1032 ppm in water; for Surface Tension (dynes/cm) at Various Surfactant Concentrations: 20 ppm: 20 ppm in water; for Surface Tension (dynes/cm) at Various Surfactant Concentrations: 200 ppm: 200 ppm in water; for Surface Tension (dynes/cm) at Various Surfactant Concentrations: 2000 ppm: 2000 ppm in water
Experimental: Test Procedure I—Surface Tension Determination
All surface tensions were determined using a Kruss K12 Tensiometer. […] The program was run using a Wilhelmy platinum plate (PL12) and glass sample vessel (GL7).

[4] = Amount of perfluoroalkylsulfonate in male rat liver tissue (HPLC/ESMS/MS); format: in vivo; details: for Elimination from the body (in words): rat, tested as potassium salt
[5] = Dynamic surface tension of water (Kruss Bubble Pressure Tensiometer BP2); format: physicochemical; details: 0.5 weight % in water; for Dynamic Surface Tension (mN/m) at Indicated Bubble Frequency (Hz): 0.01: 0.01 Hz; for Dynamic Surface Tension (mN/m) at Indicated Bubble Frequency (Hz): 0.5: 0.5 Hz; for Dynamic Surface Tension (mN/m) at Indicated Bubble Frequency (Hz): 1.0: 1.0 Hz; for Dynamic Surface Tension (mN/m) at Indicated Bubble Frequency (Hz): 5.0: 5.0 Hz
Experimental: The dynamic surface tension of water containing 0.5 weight % FC-171 (C8F17SO2N(Et)(CH2CH2O)7.5CH3, for which the surface tension was measured in Comparative Example C2, was measured with a Kruss Bubble Pressure Tensiometer, Model BP2 (Kruss USA, Charlotte, N.C.). The results are shown in Table 11.

[6] = Contact angle measurement on glass cover slips (Test Procedure II); format: physicochemical
Experimental: Test Procedure II—Contact Angle Measurement
Glass cover slips were rinsed with HPLC water and allow to air dry. The surfactant to be tested was mixed at 0.01 weight % with HPLC water. The pH was measured and if below 9, the pH was adjust to 9 by adding several drops of 1% NH4OH. The surface tension of the surfactant solution was determined using Test Procedure I.
A clean, dry glass cover slip was placed in the clamp and lower to ˜1 mm above the surface of the surfactant/water solution. Velocity search was set at 6 mm/min and velocity measure was set at 4 mm/min. Immersion depth was at least 10 mm, depending on the size of the cover slip. Advancing and receding contact angles were measured with 3 cycles. The cover slip was allowed to dry in the clamp, above the solution, for ten minutes. Advancing and receding contact angles were measured a second time with 3 cycles.

[7] = Wetting and film characterization on glass surface (Test Procedure III); format: physicochemical
Experimental: Test Procedure III—Wetting and Film Characterization on Glass Surface
A solution of the surfactant to be tested was prepared at 0.01% by weight in HPLC grade water. The surfactant solution pH was measured and if necessary, pH was adjusted to 9 by adding several drops of 1% NH4OH. Glass plates were cleaned using Windex and a squeegee. Cleaned plates placed on top of 5.1 cm by 5.1 cm by 10.2 cm wood supports, which were laid out in a parallel arrangement. Two glass plates were used for each surfactant solution and laid out adjacent to each other. Surfactant solution (10 drops) was placed on each of the two plates and observed for solution hydrophilic or hydrophobic characteristics. The solution was considered hydrophilic if it was spread out and hydrophobic if it beaded up. The surfactant solutions were allowed to air dry and the resulting film on the glass plate observed for solution autophilic or autophobic properties. The solution was considered autophilic if it dried as a sheet and autophobic if it dried in separate puddles. […] On one of the plates with the dried surfactant film was placed 10 drops of the same surfactant solution on top of the area with the dry film. […] On the other plate was placed 10 drops of HPLC grade water on top of the area with the dry film, and hydrophilic or hydrophobic characteristics were observed.

[8] = 28 days following completion of feeding
[9] = 28 days following completion of feeding, normalized to the same feeding levels
[10] = immediately following completion of feeding
[11] = 0.01 weight % solution, glass with a film of dried surfactant solution
[12] = 0.01 weight % surfactant solution in HPLC water
[13] = 0.01 weight % solution air dried on glass

Compound	Surface Tension (dynes/cm) at Various Surfactant Concentrations: 23 ppm [3] [dynes/cm]	Surface Tension (dynes/cm) at Various Surfactant Concentrations: 83 ppm [3] [dynes/cm]	Surface Tension (dynes/cm) at Various Surfactant Concentrations: 164 ppm [3] [dynes/cm]	Surface Tension (dynes/cm) at Various Surfactant Concentrations: 273 ppm [3] [dynes/cm]	Surface Tension (dynes/cm) at Various Surfactant Concentrations: 421 ppm [3] [dynes/cm]	Surface Tension (dynes/cm) at Various Surfactant Concentrations: 617 ppm [3] [dynes/cm]	Surface Tension (dynes/cm) at Various Surfactant Concentrations: 875 ppm [3] [dynes/cm]	Surface Tension (dynes/cm) at Various Surfactant Concentrations: 1032 ppm [3] [dynes/cm]	Surface Tension (dynes/cm) at Various Surfactant Concentrations: 20 ppm [3] [dynes/cm]	Surface Tension (dynes/cm) at Various Surfactant Concentrations: 200 ppm [3] [dynes/cm]	Surface Tension (dynes/cm) at Various Surfactant Concentrations: 2000 ppm [3] [dynes/cm]	Observed effects in treated rats [1]	Amount (ppm) of Sulfonate Day 1N* [2] [ppm]	Amount (ppm) of Sulfonate Day 1 [2] [ppm]	Amount (ppm) of Sulfonate Day 14N* [2] [ppm]	Amount (ppm) of Sulfonate Day 14 [2] [ppm]	Amount (ppm) of Sulfonate Day 28N* [2] [ppm]	Amount (ppm) of Sulfonate Day 28 [2] [ppm]	also measured
O=S(=O)(O)C(F)(F)C(F)(F)C(F)(F)C(F)(F)C(F)(F)C(F)(F)F [C6F13SO3^−, perfluorohexanesulfonate]	–	–	–	–	–	–	–	–	–	–	–	comparable, but less persistent than those of Comparative Example C22	98	327 ± 52	19	61.9 ± 11.7	11	36.3 ± 7.4	Factor lower than C8F17SO3^− in liver [2, 8]: 6.5; Factor lower than C8F17SO3^− in liver [2, 9]: 21.5; Factor lower than C8F17SO3^− in liver [2, 10]: 1.3
O=S(=O)([O-])C(F)(F)C(F)(F)C(F)(F)C(F)(F)F.[K+] [Example C4F9SO3K, Potassium perfluorobutanesulfonate]	–	–	–	–	–	–	–	–	–	–	–	No clear systematic toxicity, nor organ dysfunction at macroscopic or microscopic levels were observed	0.31	3.09 ± 1.58	0.0126	0.126 ± 0.084	0.0025	0.025 ± 0.015	Surface Tension (dynes/cm) at Various Surfactant Concentrations: 10 ppm [3]: 70 dynes/cm; Surface Tension (dynes/cm) at Various Surfactant Concentrations: 100 ppm [3]: 67.5 dynes/cm; Surface Tension (dynes/cm) at Various Surfactant Concentrations: 1000 ppm [3]: 53 dynes/cm; Factor lower than C6F13SO3^− in liver [4, 8]: > 1400; Factor lower than C6F13SO3^− in liver [4, 9]: 4400; Factor lower than C6F13SO3^− in liver [4, 10]: > 100; Elimination from the body (in words) [4]: unexpectedly fast and effective elimination; Elimination from the body (in words) ([4]; listed as perfluorobutylsulfonate): eliminates from the body much more effectively than perfluorohexylsulfonate and even more effectively than perfluorooctylsulfonate
O=S(=O)([O-])C(F)(F)C(F)(F)C(F)(F)C(F)(F)C(F)(F)C(F)(F)C(F)(F)C(F)(F)F.[K+] [Example C8F17SO3K, potassium perfluorooctanesulfonate]	–	–	–	–	–	–	–	–	–	–	–	decreased body weight, decreased blood cholesterol, increased liver size, and hepatocyte hypertrophy	419	419 ± 86	309	309 ± 34	237	237 ± 25	Surface Tension (dynes/cm) at Various Surfactant Concentrations: 10 ppm [3]: 67.7 dynes/cm; Surface Tension (dynes/cm) at Various Surfactant Concentrations: 100 ppm [3]: 54.1 dynes/cm; Surface Tension (dynes/cm) at Various Surfactant Concentrations: 1000 ppm [3]: 33.1 dynes/cm
CN(CC(=O)[O-])S(=O)(=O)C(F)(F)C(F)(F)C(F)(F)C(F)(F)C(F)(F)C(F)(F)F.[K+] [C6F13SO2N(Et)CH2CO2K, C6F13SO2N(CH3)CH2CO2K]	–	–	–	–	–	–	–	–	48.2	30.8	15.5	–	–	–	–	–	–	–	–
CN(CC(=O)[O-])S(=O)(=O)C(F)(F)C(F)(F)C(F)(F)C(F)(F)F.[K+] [C4F9SO2N(Et)CH2CO2K, C4F9SO2N(CH3)CH2CO2K]	–	–	–	–	–	–	–	–	68.5	57.4	44.4	–	–	–	–	–	–	–	–
C4F9SO2N(CH3)(CH2CH2O)7.5CH3 [Example 1]	31	24	23	22.5	22	21.5	20	20	–	–	–	–	–	–	–	–	–	–	Surface tension in water compared with the C8F17 analog (in words) ([3]; water, plotted against concentration in FIGS. 3-5, 7, 8): very similar to that found when using the C8F17 segment; Dynamic Surface Tension (mN/m) at Indicated Bubble Frequency (Hz): 0.01 [5]: 21 mN/m; Dynamic Surface Tension (mN/m) at Indicated Bubble Frequency (Hz): 0.5 [5]: 22 mN/m; Dynamic Surface Tension (mN/m) at Indicated Bubble Frequency (Hz): 1.0 [5]: 22.5 mN/m; Dynamic Surface Tension (mN/m) at Indicated Bubble Frequency (Hz): 5.0 [5]: 23 mN/m

More lines, main results first:

Surface Tension (dynes/cm) at Various Surfactant Concentrations: 23 ppm [3] [dynes/cm]	Surface Tension (dynes/cm) at Various Surfactant Concentrations: 83 ppm [3] [dynes/cm]	Surface Tension (dynes/cm) at Various Surfactant Concentrations: 164 ppm [3] [dynes/cm]	Surface Tension (dynes/cm) at Various Surfactant Concentrations: 273 ppm [3] [dynes/cm]	Surface Tension (dynes/cm) at Various Surfactant Concentrations: 421 ppm [3] [dynes/cm]	Surface Tension (dynes/cm) at Various Surfactant Concentrations: 617 ppm [3] [dynes/cm]	Surface Tension (dynes/cm) at Various Surfactant Concentrations: 875 ppm [3] [dynes/cm]	Surface Tension (dynes/cm) at Various Surfactant Concentrations: 1032 ppm [3] [dynes/cm]	Surface Tension (dynes/cm) at Various Surfactant Concentrations: 20 ppm [3] [dynes/cm]	Surface Tension (dynes/cm) at Various Surfactant Concentrations: 200 ppm [3] [dynes/cm]	Surface Tension (dynes/cm) at Various Surfactant Concentrations: 2000 ppm [3] [dynes/cm]	Compound	Observed effects in treated rats [1]	Amount (ppm) of Sulfonate Day 1N* [2] [ppm]	Amount (ppm) of Sulfonate Day 1 [2] [ppm]	Amount (ppm) of Sulfonate Day 14N* [2] [ppm]	Amount (ppm) of Sulfonate Day 14 [2] [ppm]	Amount (ppm) of Sulfonate Day 28N* [2] [ppm]	Amount (ppm) of Sulfonate Day 28 [2] [ppm]	also measured
33.5	21	20.5	19.5	19	19	19	19	–	–	–	CCN(CCOCCOCCOCCOCCOCCOCCOC)S(=O)(=O)C(F)(F)C(F)(F)C(F)(F)C(F)(F)C(F)(F)C(F)(F)C(F)(F)C(F)(F)F [FC-171, C8F17SO2N(C2H5)(CH2CH2O)7CH3]	–	–	–	–	–	–	–	Dynamic Surface Tension (mN/m) at Indicated Bubble Frequency (Hz): 0.01 [5]: 51 mN/m; Dynamic Surface Tension (mN/m) at Indicated Bubble Frequency (Hz): 0.5 [5]: 67 mN/m; Dynamic Surface Tension (mN/m) at Indicated Bubble Frequency (Hz): 1.0 [5]: 70 mN/m; Dynamic Surface Tension (mN/m) at Indicated Bubble Frequency (Hz): 5.0 [5]: 71 mN/m
29.5	29	24	17.5	16	15.5	16	16.5	49	23	17	CCN(CC(=O)[O-])S(=O)(=O)C(F)(F)C(F)(F)C(F)(F)C(F)(F)C(F)(F)C(F)(F)C(F)(F)C(F)(F)F.[K+] [FC-129, C8F17SO2N(C2H5)CH2CO2^−K^+]	–	–	–	–	–	–	–	Advancing CA on Dried Surfactant [6, 11]: 64.6 °; Receding CA on Dried Surfactant [6, 11]: 12.2 °; Advancing CA on Clean Glass [6, 12]: 61.6 °; Receding CA on Clean Glass [6, 12]: 7 °; Dried film clarity [7, 13]: clear; Dried film: autophilic or autophobic [7, 13]: autophilic; Solution on clean glass: hydrophilic or hydrophobic ([7]; 0.01 weight % solution in HPLC grade water): hydrophobic; Characteristic the dried film gave to water and to the surfactant solution ([7]; 10 drops placed on the dried film): hydrophilic
